# Patent publication US20250155433A1, “FLUORESCENT SENSORS FOR DETECTION OF SIDEROPHORES AND OTHER MOLECULES PRODUCED BY BACTERIAL PATHOGENS” (Kansas State University Research Foundation, priority 2021, published 2025)
# pKd: −log10 of the molar value. Where two headings read alike, the source gives them in different places. *1 amine or outer side, *2 acyl side, *3 side chain or, on linkers, in order; H or OH if unused. Where a SMILES comes first, the peptide text is derived from it. Bridges are numbered along the chain shown (N, C = ends). [ ]: non-standard residue; d: D form. X1 = O=C([C@@H]1CCN=C2C(N[*:1])=Cc3cc(O)c(O)cc3N21)[*:2]; Orn(N5-OH,N5-Ac) = CC(=O)N(O)CCC[C@H](N)C(=O)O; X2 = O=CN(O)CCC[C@H](N[*:1])C(=O)[*:2]; Suc = O=C(CCC(=O)[*:2])[*:1]
# Columns and labels:
# EcoFhuA = EcoFhuA (Escherichia coli, UniProt P06971); experiment: Fluorescence quenching binding to EcoFhuA-FM sensor; conditions: read-out: Affinity (KD) of sensor EcoFhuA; ferric complexes; Cys residue D396C, FM-labeled; NB = no binding
# Description: (§1) Fluorescence modifications. For modifications with maleimide fluorophores, we inoculated E. coli strains OKN3, OKN13, OKN359 or OKN1359, harboring plasmids that encoded a Cys mutant LGP, from frozen stocks into LB, grew them overnight and sub-cultured at 1% into iron-deficient MOPS minimal media, with shaking (200 rpm) at 37° C. for 10-12 h, until late exponential phase. After collecting the cells by centrifugation at 7500×g for 15 min, and washing with 50 mM NaHPO4, pH 6.7, we labeled the Cys-mutant LGP with 5 μM FM in 50 mM NaHPO4, pH 6.7 for 15 min at 37° C. FM. We terminated the labeling reactions with 100 μM β-mercaptoethanol. After collecting the fluoresceinated cells by centrifugation at 7500×g for 15 min, and washing with 50 mM NaHPO4, pH 6.7, we re-suspended them in PBS plus 0.2% glucose. We either immediately used the labeled cells in spectroscopic experiments, or rested them on ice (up to 24 h), or added glycerol to 15% and stored them (indefinitely) as 1 mL aliquots at −70° C. In the latter case, after thawing the labeled cells we pelleted them by centrifugation in a microfuge, washed them once with and re-suspended them in PBS containing 0.2% glucose. Lastly, for evaluation of protein expression or the extent of FM-labeling we solubilized aliquots of the cell suspensions with sample buffer, and subjected them to SDS-PAGE. After electrophoresis, we first visualized the fluorescence labeling on a Typhoon 8600 Biomolecular Scanner (GE/Amersham), and then stained the gels with Coomassie blue R (153).
# (§2) Fluorescence spectroscopic binding determinations. We observed fluorophore-labeled cells in an SLM AMINCO 8100 fluorescence spectrometer, upgraded with an OLIS operating system and software (OLIS SpectralWorks, OLIS Inc., Bogart, GA), to control its shutters, polarizers and data collection. We also utilized an OLIS Clarity fluorescence spectrometer for fluorescence assays. For binding determinations we deposited 2.5×10^7 labeled cells in a quartz cuvette (final volume, 2 mL) with stirring at 37° C., measured the initial fluorescence (F0), and then added increasing concentrations of an iron complex while monitoring the quenching of fluorescence emissions (F) at 520 nm. We performed each measurement in triplicate and calculated the mean value of F/F0 at each ligand concentration. We plotted 1−F/F0 vs [ligand] and analyzed the data by the 1-site binding model of Grafit 6.0.12 (Erithacus Ltd. West Sussex, UK), that fits data to a single site saturation curve, where the amount of ligand bound is plotted as a function of the amount free: […]
# (§3) Table 1 lists KD values from analysis of fluorescence quenching with ferric or apo (parenthetic values) siderophores or porphyrins. […]
# [1] = target: T1, HsaSCN (human siderocalin) (Homo sapiens, UniProt P80188, Q148C); experiment: Fluorescence quenching binding to purified HsaSCN-FM sensor
# T1 construct: adds a 6H-tag at either the N- or C-termini of the mature proteins; 6-His (N); made in house; host or cells: E. coli BL21 (pET28), IPTG-induced; purified on Talon Superflow
# EcoIutA = target: T2, EcoIutA (Escherichia coli, UniProt P14542, T573C); experiment: Fluorescence quenching binding to EcoIutA-FM sensor; conditions: for Binding by IutA: other ferric hydroxamates
# T2 construct: expressed in transfected cells; host or cells: E. coli OKN3/OKN13/OKN359/OKN1359 carrying a pITS23 derivative
# Description: as §1, §2, §3
# KpnFepA2380 = experiment: Fluorescence quenching binding to KpnFepA2380-FM sensor; parameters: species or system Klebsiella pneumoniae; conditions: ferric complexes; Cys residue T255C, FM-labeled; NB = no binding; read-out: Affinity (KD) of sensor KpnFepA 2380
# Description: (§4) Fluorescence modifications. For modifications with maleimide fluorophores, we inoculated E. coli strains OKN3, OKN13, OKN359 or OKN1359, harboring plasmids that encoded a Cys mutant LGP, from frozen stocks into LB, grew them overnight and sub-cultured at 1% into iron-deficient MOPS minimal media, with shaking (200 rpm) at 37° C. for 10-12 h, until late exponential phase. After collecting the cells by centrifugation at 7500×g for 15 min, and washing with 50 mM NaHPO4, pH 6.7, we labeled the Cys-mutant LGP with 5 μM FM in 50 mM NaHPO4, pH 6.7 for 15 min at 37° C. FM. We terminated the labeling reactions with 100 μM β-mercaptoethanol. […] After electrophoresis, we first visualized the fluorescence labeling on a Typhoon 8600 Biomolecular Scanner (GE/Amersham), and then stained the gels with Coomassie blue R (153).
# (§5) Fluorescence spectroscopic binding determinations. We observed fluorophore-labeled cells in an SLM AMINCO 8100 fluorescence spectrometer, upgraded with an OLIS operating system and software (OLIS SpectralWorks, OLIS Inc., Bogart, GA), to control its shutters, polarizers and data collection. We also utilized an OLIS Clarity fluorescence spectrometer for fluorescence assays. […] We performed each measurement in triplicate and calculated the mean value of F/F0 at each ligand concentration. […]
# PaeFpvA = target: T3, PaeFpvA (Pseudomonas aeruginosa, UniProt P48632, T660C); experiment: Fluorescence quenching binding to PaeFpvA-FM sensor; conditions: secondary ligands
# T3 construct: expressed in transfected cells; host or cells: E. coli OKN3/OKN13/OKN359/OKN1359 carrying a pITS23 derivative
# Description: as §4, §5
# EcoFiu = target: T4, EcoFiu (Escherichia coli, UniProt P75780, A694C); experiment: biochemical; format: binding
# T4 construct: expressed in transfected cells; host or cells: E. coli OKN3/OKN13/OKN359/OKN1359 carrying a pITS23 derivative
# Description: as §1
# Fluorescence spectroscopic binding determinations. We observed fluorophore-labeled cells in an SLM AMINCO 8100 fluorescence spectrometer, upgraded with an OLIS operating system and software (OLIS SpectralWorks, OLIS Inc., Bogart, GA), to control its shutters, polarizers and data collection. We also utilized an OLIS Clarity fluorescence spectrometer for fluorescence assays. For binding determinations we deposited 2.5×10^7 labeled cells in a quartz cuvette (final volume, 2 mL) with stirring at 37° C., measured the initial fluorescence (F0), and then added increasing concentrations of an iron complex while monitoring the quenching of fluorescence emissions (F) at 520 nm. We performed each measurement in triplicate and calculated the mean value of F/F0 at each ligand concentration. We plotted 1−F/F0 vs [ligand] and analyzed the data by the 1-site binding model of Grafit 6.0.12 (Erithacus Ltd. West Sussex, UK), that fits data to a single site saturation curve, where the amount of ligand bound is plotted as a function of the amount free:
# These plots yielded KD values for each of the receptor-ligand interactions, with associated standard errors.
# Table 1 lists KD values from analysis of fluorescence quenching with ferric or apo (parenthetic values) siderophores or porphyrins. For each determination, we measured the extent of fluorescence quenching of an FLGP, when exposed to sequentially increasing concentrations of the listed metal complexes, as plotted in FIGS. 2-4. We performed each experiment 2 or 3 times. The tabulated KD values are from single, representative experiments, in which we collected each data point in triplicate, plotted F/F0 vs [ligand] for each quenching titration, and fitted the curves to a single site binding model using Grafit 6.012 (Erithacus Ltd, […], UK).
# CRE/ESKAPE pathogens = experiment: Decoy sensor measurements of metal complex uptake by bacteria; format: cell-based; conditions: decoy sensors in TonB-deficient E. coli, 37° C., strains grown in iron-deficient MOPS
# Excerpt: Fluorescence spectroscopic uptake measurements. We employed FD sensors to monitor TonB-dependent uptake of various siderophores by bacterial pathogens. In the fluorescence spectroscopic uptake studies E. coli OKN13 (ΔtonB, ΔfepA) or OKN1359 (ΔtonB, Δfiu, ΔfepA, Δcir) were host strains for pITS23 derivatives carrying single Cys mutants of an LGP of interest. The FLGP were decoy sensors that monitored ferric siderophore uptake by test strains. For each assay we used 10^7 sensor cells (e.g., OKN13/pFepA-FM (53)) in a 2 mL quartz cuvette containing PBS+0.2% glucose at 37° C. After recording fluorescence intensity for 100 seconds, we added an iron complex (e.g., FeEnt) at a final concentration of ˜10 nM. After incubating the sample for 100 seconds, during which time fluorescence was quenched (e.g., ˜60% quenching for EcoFepA_A698C-FM), we added 0.5-2×10^7 cells of the test strain (E. coli MG1655, K. pneumoniae Kp52.145, A. baumannii 17978, P. aeruginosa PA01, E. cloacae) and monitored the time-course of fluorescence emissions at 520 nm for 15-40 minutes, with stirring.
# KpnFyuA = experiment: Fluorescence quenching binding to KpnFyuA-FM sensor; parameters: species or system Klebsiella pneumoniae
# Description: as §1, with “In the latter case, after thawing the labeled cells we pelleted them by centrifugation in a microfuge, washed them once with and re-suspended them in PBS containing 0.2% glucose. Lastly, for evaluation of protein expression or the extent of FM-labeling we solubilized aliquots of the cell suspensions with sample buffer, and subjected them to SDS-PAGE.” left out
# as §2, with “concentration.” for “concentration. We plotted 1−F/F0 vs [ligand] and analyzed the data by the 1-site binding model of Grafit 6.0.12 (Erithacus Ltd. West Sussex, UK), that fits data to a single site saturation curve, where the amount of ligand bound is plotted as a function of the amount free:”
# as §3
# AbaPiuA = AbaPiuA (Acinetobacter baumannii, UniProt D0CAH3, S724C); experiment: Fluorescence quenching binding to AbaPiuA-FM sensor
# Description: as §1, with “In the latter case, after thawing the labeled cells we pelleted them by centrifugation in a microfuge, washed them once with and re-suspended them in PBS containing 0.2% glucose. Lastly, for evaluation of protein expression or the extent of FM-labeling we solubilized aliquots of the cell suspensions with sample buffer, and subjected them to SDS-PAGE.” left out
# as §2, with “concentration.” for “concentration. We plotted 1−F/F0 vs [ligand] and analyzed the data by the 1-site binding model of Grafit 6.0.12 (Erithacus Ltd. West Sussex, UK), that fits data to a single site saturation curve, where the amount of ligand bound is plotted as a function of the amount free:”
# as §3
# AbaBauA = AbaBauA (Acinetobacter baumannii, UniProt Q76HJ9, S407C); experiment: Fluorescence quenching binding to AbaBauA-FM sensor; conditions: read-out: Affinity (KD) of sensor AbaBauA; ferric complexes; Cys residue S385C, FM-labeled; NB = no binding
# Description: as §4, §5
smiles,measurement,setting,value
"CC(=O)N(O)CCC[C@@H]1NC(=O)CNC(=O)CNC(=O)CNC(=O)[C@H](CCCN(O)C(C)=O)NC(=O)[C@H](CCCN(O)C(C)=O)NC1=O.[Fe+3] [Fc, ferrichrome] (cyclo(GGG[Orn(N5-OH,N5-Ac)][Orn(N5-OH,N5-Ac)][Orn(N5-OH,N5-Ac)]))",pKd,EcoFhuA,8.52
same,pKd,"[1]; read-out: KD, HsaSCN-FM",6.96
same,Binding by IutA,EcoIutA,did not measurably bind
"CC(=O)N(O)CCCC[C@H](NC(=O)CC(O)(CC(=O)N[C@@H](CCCCN(O)C(C)=O)C(=O)O)C(=O)O)C(=O)O [Abn, aerobactin]",pKd,EcoIutA,5.85
O=C(O)c1cccc(O)c1O.[Fe+3] [FeDHB],pKd,KpnFepA2380,4.66
same,Binding by PaeFpvA,PaeFpvA,weakly bound
same,Binding by EcoFiu,EcoFiu,did not bind
C[C@@H](O)[C@@H]1NC(=O)[C@H](CCCN([O-])C=O)NC(=O)[C@@H](NC(=O)[C@H](CCCN([O-])C=O)NC(=O)[C@@H](CO)NC(=O)[C@H](CCCNC(=N)N)NC(=O)[C@@H](CO)NC(=O)[C@@H]2CCN=C3C(NC(=O)CCC(=O)O)=Cc4cc(O)c([O-])cc4N32)CCCCNC(=O)[C@H]([C@@H](C)O)NC1=O.[Fe+3] [FePvd] (Suc-[X1][dS]R[dS][X2]K[X2]TT; lactam 6-C),TonB-dependent uptake by test strains,CRE/ESKAPE pathogens,exclusive transport of FePvd by P. aeruginosa
CC(=O)N(O)CCCCCNC(=O)CCC(=O)N(O)CCCCCNC(=O)CCC(=O)N(O)CCCCCN.[Fe+3] [FxB],pKd,"KpnFyuA; ferric complexes, Cys residue S631C, FM-labeled, NB = no binding, read-out: Affinity (KD) of sensor KpnFyuA",3.56
same,Binding by KpnFyuA,KpnFyuA; secondary ligands,weakly bound
same,pKd,EcoFhuA,4.00
same,pKd,"[1]; read-out: Affinity (KD) of sensor HsaSCN, ferric complexes and porphyrins, Cys residue Q128C, FM-labeled purified protein, NB = no binding",6.76
same,pKd,"[1]; read-out: KD, HsaSCN-FM",6.74
same,Binding by IutA,EcoIutA,did not measurably bind
O=C(N[C@@H](CO)C(=O)O)c1cccc(O)c1O.[Fe+3] [FeDHBS],Binding by AbaPiuA,AbaPiuA,did not bind
O=C([C@@H]1CSC(c2cccc(O)c2O)=N1)N(O)CCc1c[nH]cn1.[Fe+3] [FeAgn],pKd,AbaBauA,5.96
same,pKd,"[1]; read-out: KD, HsaSCN-FM",6.80
